Test results taken from ChEMBL document CHEMBL1921760, “Design, synthesis and biological evaluation of 6-pyridylmethylaminopurines as CDK inhibitors” (Bioorg Med Chem, 2011).

System: Mus musculus
Assay: Ratio of Seliciclib clearance to compound clearance in BALB/c mouse plasma at 50 mg/kg, iv after 24 hrs by LC-MS analysis
Format: ADME, organism-based
Set-up: dose 50 mg/kg, route intravenous
Conditions: in vivo

`CC[C@H](Nc1nc(NCc2cccnc2)c2ncn(C(C)C)c2n1)C(C)(C)O` and `CC[C@@H](Nc1nc(NCc2cccnc2)c2ncn(C(C)C)c2n1)C(C)(C)O` are the same in Ratio: 2 for the first, 2 for the second.

System: KM12
Assay: Growth inhibition of human KM12 cells after 96 hrs by sulforhodamine B assay
Format: functional
Conditions: KM12, 96 h

First: CC[C@@H](Nc1nc(NCc2ccccn2)c2ncn(C(C)C)c2n1)C(C)O (mixture of isomers)
Second: CC[C@H](Nc1nc(NCc2cccnc2)c2ncn(C(C)C)c2n1)C(C)(C)O
The GI50 of the first is 6.9-fold higher: 37 µM for the first, 5.4 µM for the second.

`CC[C@@H](Nc1nc(NCc2cccnc2)c2ncn(C(C)C)c2n1)C(C)(C)O` gave a GI50 of 13 µM.

System: not listed separately
Assay: AUC in BALB/c mouse plasma at 50 mg/kg, iv after 24 hrs by LC-MS analysis
Format: ADME, organism-based
Set-up: time < 24 hr, dose 50 mg/kg, route intravenous
Conditions: not given

Compared with `CC[C@H](Nc1nc(NCc2cccnc2)c2ncn(C(C)C)c2n1)C(C)(C)O`, `CC[C@@H](Nc1nc(NCc2cccnc2)c2ncn(C(C)C)c2n1)C(C)(C)O` is 2-fold higher in AUC at 24 h: 109 µM·h for the first, 223 µM·h for the second.

Target: Cyclin-dependent kinase 1/cyclin B1 (Homo sapiens, UniProt P06493)
Assay: Inhibition of CDK1/cyclin B
Format: protein-complex assay
Conditions: not given

Chain of Cyclin-dependent kinase 1/cyclin B1 (P06493 whole entry): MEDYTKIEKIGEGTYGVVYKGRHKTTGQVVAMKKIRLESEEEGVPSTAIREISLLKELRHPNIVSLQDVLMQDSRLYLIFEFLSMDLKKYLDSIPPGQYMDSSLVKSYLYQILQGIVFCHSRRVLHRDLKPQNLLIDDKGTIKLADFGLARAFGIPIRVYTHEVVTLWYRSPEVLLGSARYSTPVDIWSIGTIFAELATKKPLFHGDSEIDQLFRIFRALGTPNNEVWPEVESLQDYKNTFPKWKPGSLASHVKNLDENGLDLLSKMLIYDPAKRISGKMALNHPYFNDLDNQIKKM
Chain of Cyclin-dependent kinase 1/cyclin B1 (P14635 whole entry, further chain): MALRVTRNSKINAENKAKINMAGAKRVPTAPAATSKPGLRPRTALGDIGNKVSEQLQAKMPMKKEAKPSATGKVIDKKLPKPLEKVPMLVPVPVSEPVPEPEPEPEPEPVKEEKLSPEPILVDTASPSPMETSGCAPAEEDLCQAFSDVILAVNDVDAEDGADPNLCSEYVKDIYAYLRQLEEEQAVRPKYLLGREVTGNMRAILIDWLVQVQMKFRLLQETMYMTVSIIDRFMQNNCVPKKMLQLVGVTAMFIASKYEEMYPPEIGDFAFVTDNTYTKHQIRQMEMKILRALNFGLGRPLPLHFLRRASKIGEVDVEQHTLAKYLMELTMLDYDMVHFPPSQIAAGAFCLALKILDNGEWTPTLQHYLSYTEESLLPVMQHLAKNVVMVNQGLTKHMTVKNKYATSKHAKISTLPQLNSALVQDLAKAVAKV

Compared with `CC[C@@H](Nc1nc(NCc2ccccn2)c2ncn(C(C)C)c2n1)C(C)O` (mixture of isomers), `CC[C@H](Nc1nc(NCc2cccnc2)c2ncn(C(C)C)c2n1)C(C)(C)O` is 8.9-fold lower in IC50: 39 µM for the first, 4.4 µM for the second. The second is the more potent here.

`CC[C@@H](Nc1nc(NCc2cccnc2)c2ncn(C(C)C)c2n1)C(C)(C)O` showed an IC50 of 6.2 µM.

System: HCT-116
Assay: Growth inhibition of human HCT116 cells after 96 hrs by sulforhodamine B assay
Format: functional
Conditions: HCT-116, 96 h

First: CC[C@@H](Nc1nc(NCc2ccccn2)c2ncn(C(C)C)c2n1)C(C)O (mixture of isomers)
Second: CC[C@H](Nc1nc(NCc2cccnc2)c2ncn(C(C)C)c2n1)C(C)(C)O
The GI50 of the first is 4.4-fold higher: 18 µM for the first, 4.1 µM for the second.

`CC[C@@H](Nc1nc(NCc2cccnc2)c2ncn(C(C)C)c2n1)C(C)(C)O` gave a GI50 of 13 µM.

Target: CDK9/cyclin T1 (Homo sapiens, UniProt P50750)
Assay: Inhibition of CDK9/cyclin T1
Format: protein-complex assay
Conditions: not given

Chain of CDK9/cyclin T1 (O60563 whole entry): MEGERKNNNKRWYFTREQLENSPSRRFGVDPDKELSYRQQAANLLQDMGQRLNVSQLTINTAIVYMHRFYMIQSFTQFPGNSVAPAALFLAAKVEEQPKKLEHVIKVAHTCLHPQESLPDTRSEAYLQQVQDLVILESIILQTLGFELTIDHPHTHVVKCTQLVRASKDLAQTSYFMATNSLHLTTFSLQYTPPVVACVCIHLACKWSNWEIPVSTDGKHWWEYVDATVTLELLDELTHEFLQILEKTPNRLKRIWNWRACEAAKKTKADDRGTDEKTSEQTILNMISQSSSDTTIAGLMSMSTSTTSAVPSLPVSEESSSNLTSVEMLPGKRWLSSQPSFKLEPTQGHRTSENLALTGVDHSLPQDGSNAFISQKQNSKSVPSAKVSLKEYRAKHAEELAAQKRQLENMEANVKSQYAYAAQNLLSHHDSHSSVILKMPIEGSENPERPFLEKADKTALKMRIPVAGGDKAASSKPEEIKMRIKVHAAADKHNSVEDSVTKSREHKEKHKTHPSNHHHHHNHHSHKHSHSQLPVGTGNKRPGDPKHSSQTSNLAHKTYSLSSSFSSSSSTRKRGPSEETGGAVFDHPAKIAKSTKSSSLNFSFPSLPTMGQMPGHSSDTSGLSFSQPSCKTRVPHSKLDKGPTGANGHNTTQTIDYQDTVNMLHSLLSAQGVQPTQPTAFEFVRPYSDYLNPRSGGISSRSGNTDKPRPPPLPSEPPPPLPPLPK
Chain of CDK9/cyclin T1 (P50750 whole entry): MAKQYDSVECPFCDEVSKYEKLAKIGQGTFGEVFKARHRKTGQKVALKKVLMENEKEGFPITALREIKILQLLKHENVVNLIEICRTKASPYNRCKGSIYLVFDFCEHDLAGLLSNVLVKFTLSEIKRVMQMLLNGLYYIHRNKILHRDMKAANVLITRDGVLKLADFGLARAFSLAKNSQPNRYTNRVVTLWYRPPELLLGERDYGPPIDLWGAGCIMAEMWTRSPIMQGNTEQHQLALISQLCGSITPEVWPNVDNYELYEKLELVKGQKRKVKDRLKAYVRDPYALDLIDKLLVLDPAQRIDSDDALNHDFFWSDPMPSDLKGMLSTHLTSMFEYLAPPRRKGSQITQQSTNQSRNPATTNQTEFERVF

`CC[C@H](Nc1nc(NCc2cccnc2)c2ncn(C(C)C)c2n1)C(C)(C)O` and `CC[C@@H](Nc1nc(NCc2cccnc2)c2ncn(C(C)C)c2n1)C(C)(C)O` are within 1.5-fold of each other in IC50: 0.16 µM for the first, 0.21 µM for the second.

System: not listed separately
Assay: Metabolic stability in mouse liver microsomes assessed as compound metabolized at 10 uM after 30 mins by LC-MS analysis
Format: ADME, Microsome
Conditions: read-out: Activity

Compared with `CC[C@@H](Nc1nc(NCc2ccccn2)c2ncn(C(C)C)c2n1)C(C)O` (mixture of isomers), `CC[C@H](Nc1nc(NCc2cccnc2)c2ncn(C(C)C)c2n1)C(C)(C)O` is lower in metabolised at 0.5 h, 10 µM: 97% for the first, 22% for the second.

For `CC[C@@H](Nc1nc(NCc2cccnc2)c2ncn(C(C)C)c2n1)C(C)(C)O`, the metabolised at 0.5 h, 10 µM was 16%.

System: A2780
Assay: Growth inhibition of cisplatin-susceptible human A2780 cells after 96 hrs by sulforhodamine B assay
Format: functional
Conditions: A2780, 96 h

Going from `CC[C@@H](Nc1nc(NCc2ccccn2)c2ncn(C(C)C)c2n1)C(C)O` (mixture of isomers) to `CC[C@H](Nc1nc(NCc2cccnc2)c2ncn(C(C)C)c2n1)C(C)(C)O`, the GI50 falls from 15 µM to 4 µM (3.8-fold).

Work on `CC[C@@H](Nc1nc(NCc2cccnc2)c2ncn(C(C)C)c2n1)C(C)(C)O` yielded a GI50 of 10 µM.

System: CH1
Assay: Growth inhibition of doxorubicin-susceptible human CH1 cells after 96 hrs by sulforhodamine B assay
Format: functional
Conditions: CH1, 96 h

Going from `CC[C@@H](Nc1nc(NCc2ccccn2)c2ncn(C(C)C)c2n1)C(C)O` (mixture of isomers) to `CC[C@H](Nc1nc(NCc2cccnc2)c2ncn(C(C)C)c2n1)C(C)(C)O`, the GI50 falls from 20 µM to 5 µM (4-fold).

`CC[C@@H](Nc1nc(NCc2cccnc2)c2ncn(C(C)C)c2n1)C(C)(C)O` showed a GI50 of 20 µM.

System: not listed separately
Assay: Clearance in BALB/c mouse plasma at 50 mg/kg, iv after 24 hrs by LC-MS analysis
Format: ADME, organism-based
Set-up: dose 50 mg/kg, route intravenous
Conditions: not given

Compared with `CC[C@H](Nc1nc(NCc2cccnc2)c2ncn(C(C)C)c2n1)C(C)(C)O`, `CC[C@@H](Nc1nc(NCc2cccnc2)c2ncn(C(C)C)c2n1)C(C)(C)O` is 2-fold lower in clearance: 0.4 mL/min for the first, 0.2 mL/min for the second.

Target: Cyclin-dependent kinase 7/ cyclin H (Homo sapiens, UniProt P50613)
Assay: Inhibition of CDK7/cyclin H
Format: protein-complex assay
Conditions: not given

Chain of Cyclin-dependent kinase 7/ cyclin H (P51946 whole entry): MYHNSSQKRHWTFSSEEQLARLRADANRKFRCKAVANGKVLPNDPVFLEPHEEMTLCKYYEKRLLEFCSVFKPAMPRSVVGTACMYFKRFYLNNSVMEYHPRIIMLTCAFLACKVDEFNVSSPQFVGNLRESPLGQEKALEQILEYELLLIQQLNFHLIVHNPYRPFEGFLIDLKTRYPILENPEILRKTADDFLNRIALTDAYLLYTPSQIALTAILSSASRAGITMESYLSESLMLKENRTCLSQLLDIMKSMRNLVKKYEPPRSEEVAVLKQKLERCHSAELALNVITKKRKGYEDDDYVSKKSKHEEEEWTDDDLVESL
Chain of Cyclin-dependent kinase 7/ cyclin H (P50613 whole entry): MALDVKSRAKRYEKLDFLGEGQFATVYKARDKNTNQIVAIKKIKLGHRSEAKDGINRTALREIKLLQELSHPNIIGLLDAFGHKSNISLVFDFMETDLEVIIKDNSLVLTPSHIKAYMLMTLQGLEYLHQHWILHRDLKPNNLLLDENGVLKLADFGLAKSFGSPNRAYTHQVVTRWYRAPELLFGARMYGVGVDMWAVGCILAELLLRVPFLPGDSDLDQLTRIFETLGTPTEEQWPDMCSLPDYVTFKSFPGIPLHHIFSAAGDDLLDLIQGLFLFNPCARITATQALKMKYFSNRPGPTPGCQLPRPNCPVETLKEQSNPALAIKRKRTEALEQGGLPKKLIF

Compared with `CC[C@@H](Nc1nc(NCc2ccccn2)c2ncn(C(C)C)c2n1)C(C)O` (mixture of isomers), `CC[C@H](Nc1nc(NCc2cccnc2)c2ncn(C(C)C)c2n1)C(C)(C)O` is 4.5-fold higher in IC50: 0.55 µM for the first, 2.5 µM for the second.

For `CC[C@@H](Nc1nc(NCc2cccnc2)c2ncn(C(C)C)c2n1)C(C)(C)O`, the IC50 was 3.1 µM.

System: not listed separately
Assay: Half life in BALB/c mouse plasma at 50 mg/kg, iv by LC-MS analysis
Format: ADME, organism-based
Set-up: dose 50 mg/kg, route intravenous
Conditions: not given

Compared with `CC[C@H](Nc1nc(NCc2cccnc2)c2ncn(C(C)C)c2n1)C(C)(C)O`, `CC[C@@H](Nc1nc(NCc2cccnc2)c2ncn(C(C)C)c2n1)C(C)(C)O` is 1.5-fold higher in half-life: 24 min for the first, 36 min for the second.

System: not listed separately
Assay: Solubility of the compound in water
Format: physicochemical
Conditions: buffer

With `CC[C@H](Nc1nc(NCc2cccnc2)c2ncn(C(C)C)c2n1)C(C)(C)O` the solubility was “soluble”.
In the case of `CC[C@@H](Nc1nc(NCc2cccnc2)c2ncn(C(C)C)c2n1)C(C)(C)O`, the solubility is reported as “soluble”.

System: HT-29
Assay: Growth inhibition of human HT-29 cells after 96 hrs by sulforhodamine B assay
Format: functional
Conditions: HT-29, 96 h

Compared with `CC[C@@H](Nc1nc(NCc2ccccn2)c2ncn(C(C)C)c2n1)C(C)O` (mixture of isomers), `CC[C@H](Nc1nc(NCc2cccnc2)c2ncn(C(C)C)c2n1)C(C)(C)O` is 7.8-fold lower in GI50: 42 µM for the first, 5.4 µM for the second.

Molecule `CC[C@@H](Nc1nc(NCc2cccnc2)c2ncn(C(C)C)c2n1)C(C)(C)O` has a GI50 of 19 µM.

Target: Mitogen-activated protein kinase 1 (Homo sapiens, UniProt P28482)
Assay: Inhibition of ERK2
Conditions: not given

Chain of Mitogen-activated protein kinase 1 (P28482 whole entry): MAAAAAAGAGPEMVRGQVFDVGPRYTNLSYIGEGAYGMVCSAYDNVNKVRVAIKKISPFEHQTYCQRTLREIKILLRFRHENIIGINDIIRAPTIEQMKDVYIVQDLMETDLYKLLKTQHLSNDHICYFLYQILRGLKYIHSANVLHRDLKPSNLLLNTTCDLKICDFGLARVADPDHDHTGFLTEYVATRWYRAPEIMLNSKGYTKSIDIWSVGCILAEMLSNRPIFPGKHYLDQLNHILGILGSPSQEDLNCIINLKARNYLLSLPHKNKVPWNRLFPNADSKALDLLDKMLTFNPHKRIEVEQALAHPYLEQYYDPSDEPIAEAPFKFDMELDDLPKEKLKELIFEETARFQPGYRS

`CC[C@@H](Nc1nc(NCc2ccccn2)c2ncn(C(C)C)c2n1)C(C)O` (mixture of isomers) showed an IC50 of 73 µM.

Target: Cyclin-dependent kinase 4/cyclin D1 (Homo sapiens, UniProt P11802)
Assay: Inhibition of CDK4/cyclin D1
Format: protein-complex assay
Conditions: not given

Chain of Cyclin-dependent kinase 4/cyclin D1 (P11802 whole entry): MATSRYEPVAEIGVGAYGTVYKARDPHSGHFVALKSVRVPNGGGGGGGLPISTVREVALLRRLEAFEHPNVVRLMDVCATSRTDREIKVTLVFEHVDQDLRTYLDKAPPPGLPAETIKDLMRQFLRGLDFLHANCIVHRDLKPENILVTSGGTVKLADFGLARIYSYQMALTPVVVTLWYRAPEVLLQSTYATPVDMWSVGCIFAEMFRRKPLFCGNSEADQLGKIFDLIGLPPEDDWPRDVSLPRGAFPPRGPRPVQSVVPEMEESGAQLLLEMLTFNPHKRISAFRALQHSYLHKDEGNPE
Chain of Cyclin-dependent kinase 4/cyclin D1 (P24385 whole entry, further chain): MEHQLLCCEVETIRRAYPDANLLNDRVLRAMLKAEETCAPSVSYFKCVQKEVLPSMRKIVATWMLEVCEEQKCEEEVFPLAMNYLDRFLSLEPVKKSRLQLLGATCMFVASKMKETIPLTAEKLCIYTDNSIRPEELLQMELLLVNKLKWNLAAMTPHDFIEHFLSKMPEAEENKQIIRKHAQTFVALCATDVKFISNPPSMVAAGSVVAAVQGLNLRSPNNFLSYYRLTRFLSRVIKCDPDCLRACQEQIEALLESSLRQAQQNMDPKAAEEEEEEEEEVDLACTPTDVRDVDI

Going from `CC[C@@H](Nc1nc(NCc2ccccn2)c2ncn(C(C)C)c2n1)C(C)O` (mixture of isomers) to `CC[C@H](Nc1nc(NCc2cccnc2)c2ncn(C(C)C)c2n1)C(C)(C)O`, the IC50 falls from 48 µM to 12 µM (4-fold). The second is the more potent here.

In the case of `CC[C@@H](Nc1nc(NCc2cccnc2)c2ncn(C(C)C)c2n1)C(C)(C)O`, the IC50 is reported as 7.5 µM.

System: CH1
Assay: Growth inhibition of doxorubicin-resistant human CH1 cells after 96 hrs by sulforhodamine B assay
Format: functional
Conditions: CH1, 96 h

Going from `CC[C@@H](Nc1nc(NCc2ccccn2)c2ncn(C(C)C)c2n1)C(C)O` (mixture of isomers) to `CC[C@H](Nc1nc(NCc2cccnc2)c2ncn(C(C)C)c2n1)C(C)(C)O`, the GI50 falls from 20 µM to 6.8 µM (2.9-fold).

In the case of `CC[C@@H](Nc1nc(NCc2cccnc2)c2ncn(C(C)C)c2n1)C(C)(C)O`, the GI50 is reported as 21 µM.

Target: Cyclin-dependent kinase 2/cyclin E1 (Homo sapiens, UniProt P24941)
Assay: Inhibition of CDK2/cyclin E
Format: protein-complex assay
Conditions: not given

Going from `CC[C@@H](Nc1nc(NCc2ccccn2)c2ncn(C(C)C)c2n1)C(C)O` (mixture of isomers) to `CC[C@H](Nc1nc(NCc2cccnc2)c2ncn(C(C)C)c2n1)C(C)(C)O`, the IC50 falls from 0.52 µM to 0.07 µM (7.4-fold).

With `CC[C@@H](Nc1nc(NCc2cccnc2)c2ncn(C(C)C)c2n1)C(C)(C)O` the IC50 was 0.2 µM.

System: not listed separately
Assay: Cmax in BALB/c mouse plasma at 50 mg/kg, iv after 24 hrs by LC-MS analysis
Format: ADME, organism-based
Set-up: dose 50 mg/kg, route intravenous
Conditions: not given

`CC[C@H](Nc1nc(NCc2cccnc2)c2ncn(C(C)C)c2n1)C(C)(C)O` and `CC[C@@H](Nc1nc(NCc2cccnc2)c2ncn(C(C)C)c2n1)C(C)(C)O` are within 1.5-fold of each other in Cmax: 215 µM for the first, 275 µM for the second.

System: A2780
Assay: Growth inhibition of cisplatin-resistant human A2780 cells after 96 hrs by sulforhodamine B assay
Format: functional
Conditions: A2780, 96 h

First: CC[C@@H](Nc1nc(NCc2ccccn2)c2ncn(C(C)C)c2n1)C(C)O (mixture of isomers)
Second: CC[C@H](Nc1nc(NCc2cccnc2)c2ncn(C(C)C)c2n1)C(C)(C)O
The GI50 of the first is 4.7-fold higher: 27 µM for the first, 5.8 µM for the second.

`CC[C@@H](Nc1nc(NCc2cccnc2)c2ncn(C(C)C)c2n1)C(C)(C)O` showed a GI50 of 21 µM.

System: not listed separately
Assay: Oral bioavailability in BALB/c mouse at 50 mg/kg by LC-MS analysis
Format: ADME, organism-based
Conditions: in vivo

`CC[C@H](Nc1nc(NCc2cccnc2)c2ncn(C(C)C)c2n1)C(C)(C)O` and `CC[C@@H](Nc1nc(NCc2cccnc2)c2ncn(C(C)C)c2n1)C(C)(C)O` are the same in bioavailability: 15% for the first, 15% for the second.

System: not listed separately
Assay: Inhibition of PKA
Conditions: not given

`CC[C@@H](Nc1nc(NCc2ccccn2)c2ncn(C(C)C)c2n1)C(C)O` (mixture of isomers) and `CC[C@H](Nc1nc(NCc2cccnc2)c2ncn(C(C)C)c2n1)C(C)(C)O` cannot be ordered by IC50: > 200 µM for the first, > 200 µM for the second.

For `CC[C@@H](Nc1nc(NCc2cccnc2)c2ncn(C(C)C)c2n1)C(C)(C)O`, the IC50 was > 200 µM.

System: not listed separately
Assay: Volume of distribution in BALB/c mouse plasma at 50 mg/kg, iv after 24 hrs by LC-MS analysis
Format: ADME, organism-based
Set-up: dose 50 mg/kg, route intravenous
Conditions: not given

Compared with `CC[C@H](Nc1nc(NCc2cccnc2)c2ncn(C(C)C)c2n1)C(C)(C)O`, `CC[C@@H](Nc1nc(NCc2cccnc2)c2ncn(C(C)C)c2n1)C(C)(C)O` is lower in Vd: 0.012 L for the first, 0.01 L for the second.
